A word on the inhibition: it is the share of the control response that was lost under treatment. Low values mean little suppression, high ones strong suppression.

Among the data in patent US6410566B1, “Cyclic amine derivatives and their use as drugs” (Teijin Limited, priority 2000, dated 2002) are inhibition and IC50 values, retold here.

In experiment [1] the target is T1, binding of human MCP-1 to THP-1 cells (Homo sapiens, UniProt P41597).
T1 construct: endogenous in cells; host or cells: THP-1 (human monocytic leukemia cell line), whole cells
T1 sequence (P41597 1-360 isoform P41597-2): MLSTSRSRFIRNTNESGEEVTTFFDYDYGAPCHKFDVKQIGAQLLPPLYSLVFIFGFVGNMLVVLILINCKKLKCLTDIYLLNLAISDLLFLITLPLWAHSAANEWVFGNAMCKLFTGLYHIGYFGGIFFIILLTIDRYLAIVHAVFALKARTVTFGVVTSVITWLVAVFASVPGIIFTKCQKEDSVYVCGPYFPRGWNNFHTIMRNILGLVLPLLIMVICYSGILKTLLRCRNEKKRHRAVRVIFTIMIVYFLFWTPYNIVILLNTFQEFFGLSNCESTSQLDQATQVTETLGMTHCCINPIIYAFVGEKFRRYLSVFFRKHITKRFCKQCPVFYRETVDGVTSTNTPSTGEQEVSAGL
As to the kind of experiment: Inhibition of binding of [125I]-labeled baculovirus expressed human MCP-1 to THP-1 cells (Method 1). As to conditions: for inhibition at 100 µM: Method 1, at 100 μM. The source says: Measurement of Inhibition of MCP-1 Binding to THP-1 Cells 1. Construction of recombinant baculovirus carrying the human MCP-1 gene Based on the previously published human MCP-1 gene sequence (for example T. Yoshirnura et al., FEBS Lett., 1989, 244, 487-493), two synthetic DNA primers ([NT] and [NT]) flanked by restriction enzyme sites were used to amplify a DNA fragment from cDNA derived from human endothelial cells (purchased from Kurabow Co.); the amplified fragment was cut with the restriction enzymes (PstI and XbaI), ligated into a transfer vector pVL1393 (Invitrogen Co.), and the resulting vector was co-transfected along with infectious baculovirus into Sf-9 insect cells and the supernatant was plaque assayed to yield human MCP-1 gene baculovirus recombinant. […] Using the method of K. Ishii et al. […] The culture supernatant was affinity purified using a heparin Sepharose column (Pharmacia Co.) and then further purified using reverse phase HPLC (Vydac C18 column) to prepare purified human MCP-1. […] 3-1. […] The test. compound was diluted in the assay buffer and used as the test compound solution. [^125I]-labeled human MCP-1 described above was diluted in assay buffer to 1 mCi/mL and used as the labeled ligand solution. In a 96 well filter plate (Millipore Co.), 25 μL of test compound solution, 25 μL of labeled ligand solution and 50 μL of cell suspension were aliquoted into each well in this order, stirred (total reaction volume 100 μL), and incubated for one hour at 18° C. After the reaction, the reaction solution was filtered, and the filter was washed twice with 200 μL of cold PBS (200 μL of cold PBS was added and then filtered). The filter was air-dried and 25 μL of liquid sciatillator was added into each well. The radioactivity retained by the cells on the filter were measured using TopCount (Packard Instrument Co.). To calculate the ability of test compound to inhibit binding of human MCP-1 to THP-1 cells, non-specific binding determined by adding 100 ng of unlabeled human MCP-1 in place of the test compound was subtracted, while the counts with no test compound added was taken as 100%. Inhibition (%)=(1-(A-B)/(C-B))×100 (A, counts with test compound added; B, counts with 100 ng of unlabeled human MCP-1 added; C, counts with [^125I]-labeled human MCP-1 added).

For experiment [2], the target named is T2, binding of human MIP-1α to THP-1 cells (Homo sapiens, UniProt P32246).
T2 construct: endogenous in cells; host or cells: THP-1 (human monocytic leukemia cell line), whole cells
T2 sequence (P32246 1-355): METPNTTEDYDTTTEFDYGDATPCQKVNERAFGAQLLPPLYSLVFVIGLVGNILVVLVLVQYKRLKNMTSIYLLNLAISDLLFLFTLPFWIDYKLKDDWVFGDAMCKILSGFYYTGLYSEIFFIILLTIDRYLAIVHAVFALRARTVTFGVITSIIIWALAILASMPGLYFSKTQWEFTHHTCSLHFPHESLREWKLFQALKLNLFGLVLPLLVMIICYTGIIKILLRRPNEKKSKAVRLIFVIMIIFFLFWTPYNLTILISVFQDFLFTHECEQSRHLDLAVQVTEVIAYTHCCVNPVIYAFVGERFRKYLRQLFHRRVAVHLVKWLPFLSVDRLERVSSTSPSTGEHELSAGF
Briefly: Inhibition of MIP-1α binding to THP-1 cells. The method, then: Measurement of Inhibition of MIP-1α Binding to THP-1 Cells by Test Compounds
(§1) Human monocytic leukemia cell line THP-1 was suspended in assay buffer (RPMI-1640 (Gibco-BRL Co.) containing 0.1% BSA and 25 mM HEPES adjusted to pH 7.4) to give a cell suspension of a concentration of 1×10^7 cells/mL. The test compound was diluted in the assay buffer and used as the test compound solution. Iodinated human MIP-1α (DuPont NEN Co.) was diluted in assay buffer to 250 nCi/mL and used as the labeled ligand solution. In a 96 well filter plate (Millipore Co.), 25 μL of test compound solution, 25 μL of labeled ligand solution and 50 μL of cell suspension were aliquoted into each well in this order, stirred (total reaction volume 100 μL), and incubated for one hour at 18° C.
After the reaction, the reaction solution was filtered, and the filter was washed twice with 200 μL of cold PBS (200 μL of cold PBS was added and then filtered). The filter was air-dried and 25 μL of liquid scintillator was added into each well. The radioactivity retained by the cells on the filter were measured using TopCounit (Packard Instrument Co.).
To calculate the ability of test compounds to inhibit binding of human MIP-1α to THP-1 cells, non-specific binding determined by adding 100 ng of unlabeled human MIP-1α (Peprotech Co.) in place of the test compound was subtracted, while the counts with no test compound added was taken as 100%.
(§2) Inhibition (%)={1−(A−B)/(C−B)}×100
(A, counts with test compound added; B, counts with 100 ng of unlabeled human MIP-1α added; C, counts with [^125I]-labeled human MIP-1α added).

For experiment [3], the system named is THP-1 cells. Briefly: Inhibition of cell chemotaxis caused by MCP-1. As to conditions: Homo sapiens, MCP-1 20 ng/mL, read-out: inhibition of cell migration IC50. It counts as cell-based. The method, then: Measurement of Inhibition of Cell Chemotaxis
In order to determine the inhibition of cell chemotaxis by the compounds of this invention, we measured cell chemotaxis caused by monocyte chemotactic factor MCP-1 using the human monocytic leukemia cell line THP-1 as the chemotactic cell according to the method of Fall et al. (J. Immunol. Methods, 190, 33,239-247). 2×10^6 cells/mL of THP-1 cells (suspended in RPMI-1640 (Flow Laboratories Co.)+10% FCS) was placed in the upper chamber (200 μL) of a 96 well micro-chemotaxis chamber (Neuroprobe; registered tradename), and human recombinant MCP-1 in a same solution (Peprotech Co.) at a final concentration of 20 ng/mL was placed in the lower chamber, with a polycarbonate filter (PVP-free, Neuroprobe; registered tradename) placed between the two chambers. These were incubated at 37° C. for 2 hr in 5% CO2.
The filter was removed, and the cells which had migrated to the underside of the filter was fixed, stained using Diff Quick (Kokusai Shiyaku Co.) and then quantitated using a plate reader (Molecular Device Co.) at a wavelength of 550 nm to determine the index of cell migration as a mean of 3 wells. In addition, test compounds were placed in the upper and lower chambers along with THP-1 and MCP-1, respectively, and the inhibition of cell migration (inhibition IC50 (μM)) was determined.

The target of experiment [4] is T1, binding of human MCP-1 to THP-1 cells. As to the kind of experiment: Inhibition of binding of [125I]-labeled baculovirus expressed human MCP-1 to THP-1 cells (Method 2). As to conditions: for inhibition at 1 µM: Method 2, at 1 μM.
Description: 1. Construction of recombinant baculovirus carrying the human MCP-1 gene
Based on the previously published human MCP-1 gene sequence (for example T. Yoshirnura et al., FEBS Lett., 1989, 244, 487-493), two synthetic DNA primers (5′-[…]-3′ and 5′-[…]-3′) flanked by restriction enzyme sites were used to amplify a DNA fragment from cDNA derived from human endothelial cells (purchased from Kurabow Co.); the amplified fragment was cut with the restriction enzymes (PstI and XbaI), ligated into a transfer vector pVL1393 (Invitrogen Co.), and the resulting vector was co-transfected along with infectious baculovirus into Sf-9 insect cells and the supernatant was plaque assayed to yield human MCP-1 gene baculovirus recombinant.
2. Synthesis of [^125I]-labeled human MCP-1 expressed in baculovirus
Using the method of K. Ishii et al. (Biochem Biophys Research Communications, 1995, 206, 955-961), 5×10^6 Sf-6 insect cells was infected with 5×10^7 PFU (plaque forming units) of the above human MCP-1 recombinant baculovirus and cultured for 7 days in Ex-Cell 401 medium. The culture supernatant was affinity purified using a heparin Sepharose column (Pharmacia Co.) and then further purified using reverse phase HPLC (Vydac C18 column) to prepare purified human MCP-1. The purified human MCP-1 was protein labeled by Amersham Co. using the Bolton Hunter method to yield [^125I]-labeled baculovirus expressed human MCP-1 (specific activity 2000 Ci/mmol).
3-2. Measurement of inhibition of binding of [^125I]-labeled baculovirus expressed human MCP-1 to THP-1 cells (Method 2)
as §1, with “(50” for “(RPMI-1640 (Gibco-BRL Co.) containing 0.1% BSA and 25”, “HEPES,” for “HEPES adjusted to”, “7.4, 1.0 mM CaCl2, 5.0% mM MgCl2, 0.5% BSA)” for “7.4)”, “[^125I]-labeled” for “Iodinated”, “MCP-1 described above” for “MIP-1α (DuPont NEN Co.)”, “1 mCi/mL” for “250 nCi/mL”
After the reaction, the reaction solution was filtered, and the filter was washed twice with 200 μL of cold PBS (200 μL of cold PBS was added and then filtered). The filter was air-dried and 25 μL of liquid scintillator was added into each well. The radioactivity retained by the cells on the filter were measured using TopCount (Packard Instrument Co.).
To calculate the ability of test compound to inhibit binding of human MCP-1 to THP-1 cells, non-specific binding determined by adding 100 ng of unlabeled human MCP-1 in place of the test compound was subtracted, while the counts with no test compound added was taken as 100%.
as §2
(A, counts with test compound added; B, counts with 100 ng of unlabeled human MCP-1 added; C, counts with [^125I]-labeled human MCP-1 added).

A value given as a limit tells only on which side of the number the result lay.

As for `O=C(CNC(=O)c1ccccc1)NCC1CCN(Cc2ccc(Cl)cc2)CC1` [Compound No. 458, 4-{(N-Benzoylglycyl)amino}methyl-1-(4-chlorobenzyl)piperidine], in experiment [1], the inhibition at 100 µM is greater than 80%. In experiment [2], this compound showed an inhibition at 10 µM of 50 to 80%.
With `O=C(CNC(=O)c1cccc(C(F)(F)F)c1)NCC1CCN(Cc2ccc(Cl)cc2)CC1` [Compound No. 461, 1-(4-chlorobenzyl)-4-[{N-(3-(trifluoromethyl)benzoyl)glycyl}aminomethyl]piperidine], the IC50 in experiment [3] was less than 100 nM. Moreover, the inhibition at 10 µM in experiment [2] is greater than 80%.
Turning to `CN(CC1CCN(Cc2ccc(Cl)cc2)CC1)C(=O)CNC(=O)c1cccc(C(F)(F)F)c1` [Compound No. 520, 1-(4-chlorobenzyl)-4-[N-methyl-N-{N-(3-(trifluoromethyl)benzoyl)glycyl}aminomethyl]piperidine], the inhibition at 10 µM lay in the range of 50 to 80% in experiment [1] (Method 1, at 10 μM) and 50 to 80% in experiment [2].
In turn, `O=C(NCC(=O)N(CC1CCN(Cc2ccc(Cl)cc2)CC1)CC(c1ccccc1)c1ccccc1)c1ccccc1` [Compound No. 524, 4-{N-(N-Benzoylglycyl)-N-(2,2-diphenylethyl)aminomethyl}-1-(4-chlorobenzyl)piperidine] came in with an inhibition at 10 µM in experiment [2] of 20 to 50%.
Turning to `CC(C)[C@H](NC(=O)c1cccc(C#N)c1)C(=O)NCC1CCN(Cc2ccc(Cl)cc2)CC1` [Compound No. 619, 1-(4-Chlorobenzyl)-4-[{N-(3-cyanobenzoyl)valyl}aminomethyl]piperidine], the inhibition at 10 µM in experiment [2] lay within 50 to 80%.
The compound `CC(C)c1ccc(S(=O)(=O)NCC(=O)NCC2CCN(Cc3ccc(Cl)cc3)CC2)cc1` [Compound No. 869, 1-(4-Chlorobenzyl)-4-[{N-(4-isopropylphenylsulfonyl)glycyl}aminomethyl]piperidine] displayed an inhibition at 100 µM in experiment [1] of 20 to 50%. The compound also showed an inhibition at 10 µM in experiment [2] greater than 80%.
Turning to `Nc1ccc(Br)cc1C(=O)NCC(=O)NCC1CCN(Cc2ccc(Cl)cc2)CC1` [Compound No. 1042, 4-{N-(2-amino-5-bromobenzoyl)glycyl}aminomethyl-1-(4-chlorobenzyl)piperidine], the IC50 in experiment [3] is less than 100 nM. Besides, the inhibition at 1 µM in experiment [4] is greater than 80%. Further, in experiment [4] (Method 2, at 10 μM), the inhibition at 10 µM was greater than 80%. In experiment [2], this compound gave an inhibition at 2 µM of 20 to 50% and an inhibition at 10 µM of 50 to 80%.
On to `Nc1cc(Cl)ccc1CN1CCC(CNC(=O)CNC(=O)c2cc(C(F)(F)F)ccc2N)CC1` [Compound No. 1919, 4-[{N-(2-Amino-5-trifluoromethylbenzoyl)glycyl}aminomethyl]-1-(2-amino-4-chlorobenzyl)piperidine], for which the IC50 in experiment [3] is less than 100 nM. This compound also gave an inhibition at 1 µM in experiment [4] greater than 80%. The inhibition at 2 µM in experiment [2] lay within 20 to 50%.
As for `O=C(CNC(=O)c1ccccc1)NC1CCN(Cc2ccc(Cl)cc2)C1` (centres unmarked) [compound 1, 3-(N-Benzoylglycyl)amino-1-(4-chlorobenzyl)pyrrolidine], in experiment [1], the inhibition at 100 µM was 50 to 80%. The inhibition at 10 µM in experiment [2] was 50 to 80%.
